Values joined by “and” are separate entries in the source; they are usually repeats but may differ in a detail not shown here. Identical values can stand only once.
Legend:
Type in all cases: in vivo, human
[1] = Phase I study: plasma pharmacokinetics of orally administered Compound 1; details: for Cmax / Tmax / AUC(0-inf) / AUC(0-t) / half-life: human, plasma, oral
From the text: The study was designed as a multicenter, open-label Phase 1 study of orally administered Compound 1 in participants with R/R AML or participants with R/R intermediate- to high-risk MDS. […] Additional cohorts for participants with R/R intermediate- to high-risk MDS following hypomethylating agents or other AML cohorts may be added at a later time.
Similar dosing may be used in the dose expansion part of the study. […] Additional intensive PK testing is collected for any participants undergoing intra-patient dose escalation.
At the conclusion of the 900 mg QD cohort, subjects were enrolled in cohorts for BID dosing, starting with the 300 mg BID dosing.
Subjects were treated with Compound 1 QD as described in Example 2.
Subjects were treated with Compound 1 QD or BID dosing as described in Example 2 and blood samples were taken from subjects and analyzed as described in Example 3. Tables 16 and 17 show pharmacokinetic analyses for QD dosing for 100 mg, 175 mg, 275 mg, 350 mg, 400 mg and 900 mg cohorts and BID dosing for 300 mg and 350 mg cohorts. Abbreviations in Table 16 and Table 17: AR=Day 4 AUC0-24/Day 1 AUC0-24, NR=not reported; NA=not available. […] FIG. 9 and FIG. 10 show AUC for day 1 and day 4 of dosing with doses between 350-900 mg QD compared with 350 mg BID.

[2] = tested on: Activated Caspase 3; assay: Activated Caspase 3 biomarker in patient blood samples; details: cohorts 4 and 5; one patient
Procedure: (§1) Two biomarkers were assessed in patients from cohorts 4 and 5. K48-Ub (ubiquitin) and Activated Caspase 3 biomarkers were analyzed from 5 patient blood samples.

[3] = tested on: K48-Ub (ubiquitin); assay: K48-Ub (ubiquitin) biomarker in patient blood samples; details: cohorts 4 and 5; two of 5 patients showed changes
Procedure: as §1

[4] = 350 mg, 350 mg BID, Day 4, Mean

## Cc1cc2c(C(N)=O)cccc2n1-c1nc2c(c(NCc3ccccc3)n1)CCCN2 [Compound 1, 1-(4-(benzylamino)-5,6,7,8-tetrahydropyrido[2,3-d]pyrimidin-2-yl)-2-methyl-1H-indole-4-carboxamide]
[1]; [4]
  Cmax: 2020 ng/mL and 4.89 µM
  Tmax: 3.25 h
[1]; 350 mg, 350 mg QD, Day 1, Mean
  AUC(0-inf): 5330 ng·h/mL and 12.9 µM·h
  AUC(0-t): 5200 ng·h/mL and 12.6 µM·h
  Cmax: 746 ng/mL and 1.81 µM
  Tmax: 3.2 h
  half-life: 4.48 h
[1]; 350 mg, 350 mg QD, Day 4, Mean
  AUC(0-inf): 8570 ng·h/mL and 20.8 µM·h
  AUC(0-t): 8440 ng·h/mL and 20.4 µM·h
  Cmax: 834 ng/mL and 2.02 µM
  Tmax: 4 h
  half-life: 7.55 h
[1]; 450 mg, 450 mg QD, Day 1, Mean
  AUC(0-inf): 8860 ng·h/mL and 21.5 µM·h
  AUC(0-t): 8340 ng·h/mL and 20.2 µM·h
  Cmax: 895 ng/mL and 2.17 µM
  Tmax: 3 h
  half-life: 6.05 h
[1]; 450 mg, 450 mg QD, Day 4, Mean
  AUC(0-inf): 15900 ng·h/mL and 38.4 µM·h
  AUC(0-t): 14500 ng·h/mL
  Cmax: 1350 ng/mL and 3.28 µM
  Tmax: 4 h
  half-life: 9.62 h
[1]; 600 mg, 600 mg QD, Day 1, Mean
  AUC(0-inf): 6500 ng·h/mL and 15.7 µM·h
  AUC(0-t): 5710 ng·h/mL and 13.8 µM·h
  Cmax: 799 ng/mL and 1.93 µM
  Tmax: 3.6 h
  half-life: 5.94 h
[1]; 600 mg, 600 mg QD, Day 4, Mean
  AUC(0-inf): 18200 ng·h/mL and 44 µM·h
  AUC(0-t): 17200 ng·h/mL and 41.7 µM·h
  Cmax: 1960 ng/mL and 4.75 µM
  Tmax: 3.4 h
  half-life: 9.77 h
[1]; 750 mg, 750 mg QD, Day 1, Mean
  AUC(0-inf): 6160 ng·h/mL and 14.9 µM·h
  AUC(0-t): 5960 ng·h/mL and 14.4 µM·h
  Cmax: 796 ng/mL and 1.93 µM
  Tmax: 3.33 h
  half-life: 4.49 h
[1]; 750 mg, 750 mg QD, Day 4, Mean
  AUC(0-inf): 13200 ng·h/mL and 32.1 µM·h
  AUC(0-t): 12900 ng·h/mL and 31.3 µM·h
  Cmax: 2260 ng/mL and 5.48 µM
  Tmax: 2.5 h
  half-life: 6.67 h
[1]; 900 mg, 900 mg QD, Day 1, Mean
  AUC(0-inf): 14000 ng·h/mL and 33.9 µM·h
  AUC(0-t): 12300 ng·h/mL and 29.8 µM·h
  Cmax: 1550 ng/mL and 3.76 µM
  Tmax: 2.5 h
  half-life: 5.71 h
[1]; 900 mg, 900 mg QD, Day 4, Mean
  AUC(0-inf): 27000 ng·h/mL and 65.3 µM·h
  AUC(0-t): 26700 ng·h/mL and 64.6 µM·h
  Cmax: 3220 ng/mL and 7.8 µM
  Tmax: 3.33 h
  half-life: 6.47 h
[1]; 175 mg QD, Day 1, Mean
  Cmax: 1540 nM
[1]; 450 mg QD, Day 4, Mean
  AUC(0-t): 35.2 µM·h
[1]; vs CB-5083 at greater than 200 mg, FIG. 4
  exposures compared with CB-5083: greater than dosing CB-5083 at greater than 200 mg
[2]
  Activated Caspase 3, fold increase: 9 fold
[3]
  K48-Ub (ubiquitin) biomarker, best fold change after treatment: approximately 3.5 fold

Source: patent US20250049800A1, “VCP/p97 INHIBITOR FOR THE TREATMENT OF CANCER” (CASI Pharmaceuticals, Inc., priority 2021, published 2025)
